The values that follow come from patent publication US6211181A, “1-Benzenesulfonyl pyrrolidine derivatives as bradykinin receptor antagonists” (Fournier Industrie et Sante, priority 1995, dated 2001).

Counter-ions that a name gives are not always drawn.

The target of the assay is T1, guinea-pig B2 receptor (Cavia porcellus, UniProt O70526).
T1 construct: Ileum segments are isolated from male guinea-pigs of the Dunkin-Hartley strain; tissue Iffa Credo, l'Arbresle, France (supplier of the animals); host or cells: ileum membranes of male Dunkin-Hartley guinea pigs
T1 sequence (O70526 1-372): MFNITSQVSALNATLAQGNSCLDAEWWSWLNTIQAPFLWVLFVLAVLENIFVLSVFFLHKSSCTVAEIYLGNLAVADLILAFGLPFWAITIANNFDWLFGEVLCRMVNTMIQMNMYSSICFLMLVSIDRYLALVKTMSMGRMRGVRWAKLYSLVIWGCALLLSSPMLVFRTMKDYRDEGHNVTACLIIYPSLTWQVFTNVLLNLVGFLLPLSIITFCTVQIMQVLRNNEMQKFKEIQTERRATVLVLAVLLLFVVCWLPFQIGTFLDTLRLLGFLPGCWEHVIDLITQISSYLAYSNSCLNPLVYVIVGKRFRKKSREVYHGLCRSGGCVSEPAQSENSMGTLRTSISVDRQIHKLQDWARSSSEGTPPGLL
The assay can be described thus: [3H]-bradykinin binding to guinea-pig ileum membranes. To be noted: test compound at 10^-6 M, [3H]-bradykinin 120 pM, 90 min at 20° C., read-out: ACTIVITY % (percentage inhibition of the binding of [3H]-bradykinin). Here is the method:
The following pharmacological test is used: Ileum segments are isolated from male guinea-pigs of the Dunkin-Hartley strain (Iffa Credo, l'Arbresle, France) and ground in the following TES buffer: TES 25 mM, 1,10-phenanthroline 1 mM (pH 6.8), bacitracin 140 μg/ml, BSA 1 g/l. The membranes are then isolated by centrifugation (18,000 rpm; 20 min; 4° C.). The binding studies are carried out in the TES buffer using [^3 H]-bradykinin (120 pM) and 50 μg of membrane protein per test (final volume 500 μl) with an equilibrium time of 90 min at 20° C. […] The results obtained from these tests (shown as "activity") are collated in Table I below with reference to the Examples given in the description.

In the case of `Cc1cc(C)c2cccc(OCc3c(Cl)ccc(S(=O)(=O)N4CCC[C@H]4C(=O)N4CCNCC4)c3Cl)c2n1` [Example 5, 1-[[3-[(2,4-Dimethylquinolin-8-yl)oxymethyl]-2,4-dichlorophenyl]sulfonyl]-2-(S)-[(piperazin-1-yl)carbonyl]pyrrolidine bistrifluoroacetate], the inhibition (commonly the relative decrease from the control value, in per cent) at 1 µM was 100%.
For the molecule `Cc1ccc2cccc(OCc3c(Cl)ccc(S(=O)(=O)N4CCC[C@H]4C(=O)NCCCN)c3Cl)c2n1` [Example 9, 1-[[3-[(2-Methylquinolin-8-yl)oxymethyl]-2,4-dichlorophenyl]sulfonyl]-N-(3-aminopropyl)-2-(S)-pyrrolidinecarboxamide dihydrochloride], the inhibition at 1 µM stood at 100%.
`Cc1cc(C)c2cccc(OCc3c(Cl)ccc(S(=O)(=O)N4C[C@H](O)C[C@H]4C(=O)N4CCN(C(=N)N)CC4)c3Cl)c2n1` [Example 15, 1-[[3-[(2,4-Dimethylquinolin-8-yl)oxymethyl]-2,4-dichlorophenyl]sulfonyl]-2-(S)-[[4-(aminoiminomethyl)piperazin-1-yl]carbonyl]-4-(R)-hydroxypyrrolidine bistrifluoroacetate]: the inhibition at 1 µM was found to be 100%.
Consider `Cc1ccc2cccc(OCc3c(Cl)ccc(S(=O)(=O)N4CCC[C@H]4C(=O)NC4CCNCC4)c3Cl)c2n1` [Example 8, 1-[[3-[(2-Methylquinolin-8-yl)oxymethyl]-2,4-dichlorophenyl]sulfonyl]-N-(piperidin-4-yl)-2-(S)-pyrrolidinecarboxamide dihydrochloride], for which the inhibition at 1 µM is 100%.
The value for `Cc1cc(C)c2cccc(OCc3c(Cl)ccc(S(=O)(=O)N4CCC[C@H]4C(=O)NCCNC(=N)N)c3Cl)c2n1` [Example 19, 1-[[3-[(2,4-Dimethylquinolin-8yl)oxymethyl]-2,4-dichlorophenyl]sulfonyl]-N-[2-[(aminoiminomethyl)amino]ethyl]-2-(S)-pyrrolidinecarboxamide dihydrochloride] was 97%.
As for `Cc1cc(C)c2cccc(OCc3c(Cl)ccc(S(=O)(=O)N4CCC[C@H]4C(=O)NCCCNC(=N)N)c3Cl)c2n1` [Example 20, 1-[[3-[(2,4-Dimethylquinolin-8-yl)oxymethyl]-2,4-dichlorophenyl]sulfonyl]-N-[3-[(aminoiminomethyl)amino]propyl]-2-(S)-pyrrolidinecarboxamide dihydrochloride], the inhibition at 1 µM is 98%.
As for `Cc1ccc2cccc(OCc3c(Cl)ccc(S(=O)(=O)N4CCC[C@H]4C(=O)NCCN)c3Cl)c2n1` [Example 3, 1-[[3-[(2-Methylquinolin-8-yl)oxymethyl]-2,4-dichlorophenyl]sulfonyl]-N-(2-aminoethyl)-2-(S)-pyrrolidinecarboxamide], the inhibition at 1 µM came to 100%.
On to `Cc1ccc2cccc(OCc3c(Cl)ccc(S(=O)(=O)N4CCC[C@H]4C(=O)N4CCNCC4)c3Cl)c2n1` [Example 2, 1-[[3-[(2-Methylquinolin-8-yl)oxymethyl]-2,4-dichlorophenyl]sulfonyl]-2-(S)-[(piperazin-1-yl)carbonyl]pyrrolidine], for which the inhibition at 1 µM was 100%.
With `Cc1ccc2cccc(OCc3c(Cl)ccc(S(=O)(=O)N4CCC[C@H]4C(=O)N4CCN(C(=N)N)CC4)c3Cl)c2n1` [Example 24, 1-[[3-[(2-Methylquinolin-8-yl)oxymethyl]-2,4-dichlorophenyl]sulfonyl]-2-(S)-[[4-(aminoiminomethyl)piperazin-1-yl]carbonyl]pyrrolidine dihydrochloride], the inhibition at 1 µM stood at 98%.
In the case of `Cc1cc(C)c2cccc(OCc3c(Cl)ccc(S(=O)(=O)N4CCC[C@H]4C(=O)N4CCN(C(=N)N)CC4)c3Cl)c2n1` [Example 14, 1-[[3-[(2,4-Dimethylquinolin-8-yl)oxymethyl]-2,4-dichlorophenyl]sulfonyl]-2-(S)-[[4-(aminoiminomethyl)piperazin-1-yl]carbonyl]pyrrolidine bistrifluoroacetate], the inhibition at 1 µM was determined as 98%.
For the molecule `Cc1ccc2cccc(OCc3c(Cl)ccc(S(=O)(=O)N4CCC[C@H]4C(=O)N4CC(C)N(C(=N)N)C(C)C4)c3Cl)c2n1` (stereo partly drawn) [Example 25, 1-[[3-[(2-Methylquinolin-8yl)oxymethyl]-2,4-dichlorophenyl]sulfonyl]-2-(S)-[[4-(aminoiminomethyl)-3,5-dimethylpiperazin-1-yl]carbonyl]pyrrolidine dihydrochloride], the inhibition at 1 µM worked out at 100%.
The value for `Cc1ccc2cccc(OCc3c(Cl)ccc(S(=O)(=O)N4CCC[C@H]4C(=O)NCC4CCNCC4)c3Cl)c2n1` [Example 10, 1-[[3-[(2-Methylquinolin-8-yl)oxymethyl]-2,4-dichlorophenyl]sulfonyl]-N-[(piperidin-4-yl)methyl]-2-(S)-pyrrolidinecarboxamide dihydrochloride] was 100%; that for `Cc1ccc2cccc(OCc3c(Cl)ccc(S(=O)(=O)N4CCC[C@H]4C(=O)NCCNC(=N)N)c3Cl)c2n1` [Example 16, 1-[[3-[(2-Methylquinolin-8-yl)oxymethyl]-2,4-dichlorophenyl]sulfonyl]-N-[2-[(aminoiminomethyl)amino]ethyl]-2-(S)-pyrrolidinecarboxamide bistrifluoroacetate] was 100%.
The same measure for `Cc1ccc2cccc(OCc3c(Cl)ccc(S(=O)(=O)N4CCC[C@H]4C(=O)NCC4CCN(C(=N)N)CC4)c3Cl)c2n1` [Example 22, 1-[[3-[(2-Methylquinolin-8-yl)oxymethyl]-2,4-dichlorophenyl]sulfonyl]-N-[[1-(aminoiminomethyl)piperidin-4-yl]methyl]-2-(S)-pyrrolidinecarboxamide dihydrochloride]: 98%; for `Cc1ccc2cccc(OCc3c(Cl)ccc(S(=O)(=O)N4CCC[C@H]4C(=O)NC4CCN(C(=N)N)CC4)c3Cl)c2n1` [Example 23, 1-[[3-[(2-Methylquinolin-8-yl)oxymethyl]-2,4-dichlorophenyl]sulfonyl]-N-[1-(aminoiminomethyl)piperidin-4-yl]-2-(S)-pyrrolidinecarboxamide dihydrochloride]: 100%.
Regarding `Cc1ccc2cccc(OCc3c(Cl)ccc(S(=O)(=O)N4CCC[C@H]4C(=O)N4CCN(C(=NC(C)C)NC(C)C)CC4)c3Cl)c2n1` [Example 27, 1-[[3-[(2-Methylquinolin-8-yl)oxymethyl]-2,4-dichlorophenyl]sulfonyl]-2-(S)-[[4-[(1-methylethylamino)(1-methylethylimino)methyl]piperazin-1-yl]-carbonyl]pyrrolidine dihydrochloride], the inhibition at 1 µM came to 100%.
